Molecular target: hu3F8 Fab
Assay type: binding

Substance: GD2 hexasaccharide [GD2os]
- Kd: 2.3 ± 0.1 µM
